The source of these data is US20250340561A1, “QUINAZOLINE COMPOUND FOR INDUCING DEGRADATION OF G12D MUTANT KRAS PROTEIN” (Astellas Pharma Inc., priority 2021, published 2025).

Structures are written as SMILES. Read-outs that look alike come from different tables or passages of the source.

The test system of assay [1] is human G12D mutant KRAS-positive pancreatic cancer line AsPC-1. In words: Test Example 3: non-anchorage-dependent cell growth inhibition, spheroid 3D cell culture. Type of assay: cell-based. The note with it: AsPC-1 spheroid 3D culture, 6 days, CellTiter Glo 2.0. The method in brief:
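AsPC-1 cells were grown as spheroids (5×10^2 cells/well, low-adhesion round-bottom plates). Next day they were treated with compound at 6 final concentrations from 10 μM to 3.0 nM for 6 days at 37 °C, and viability was read by CellTiter Glo luminescence. IC50 came from Sigmoid-Emax nonlinear regression, normalized between DMSO-treated and cell-free wells.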
In general terms: In ATP-based viability assays light output follows the ATP content of the culture.

Assay [2] concerns phosphorylation of ERK (Thr202/Tyr204). Briefly: Test Example 2: ERK phosphorylation inhibition action in AsPC-1, Cell ELISA. Type of assay: cell-based, human. Particulars: AsPC-1 cells, 0% = 1 μM trametinib. The method, boiled down:
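AsPC-1 cells (KRAS G12D) treated 24 h with compound (6 points, 10 μM to 3.0 nM final) in RPMI 1640/10% FBS. Fixed with glyoxal; pERK Thr202/Tyr204 detected by In-Cell ELISA with 800 nm fluorescence. IC50 by Sigmoid-Emax regression, with DMSO set to 100% and 1 μM trametinib to 0%.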
On the technique in general: In an ELISA, binding on a coated surface is turned into a signal by an enzyme label.

[3] abbreviates: Homo sapiens, ASPC1, 144 h, read-out: IC50.
Setting [4] is: Homo sapiens, ASPC1, 24 h, read-out: IC50.

Broadly, the IC50 is the concentration needed to halve the response being measured. Consider `Cc1ncsc1-c1ccc([C@H](CO)NC(=O)[C@@H]2C[C@@H](O)CN2C(=O)[C@H](C(C)C)n2cc(-c3ccc(COc4c(-c5cc(O)cc(F)c5C)c(C5CC5)cc5c(N6C[C@@H]7C[C@H]6CN7)nc(OC6CCOCC6)nc45)cc3)nn2)cc1` [Example 15], for which the IC50 was 64 nM in assay [1] (Homo sapiens, ASPC1, 144 h) and 22 nM in assay [2] (Homo sapiens, ASPC1, 24 h).

Regarding `Cc1ncsc1-c1ccc([C@H](CO)NC(=O)[C@@H]2C[C@@H](O)CN2C(=O)[C@H](C(C)C)n2cc(-c3ccc(COc4c(-c5c(C)c(F)cc6[nH]ncc56)c(C5CC5)cc5c(N6C[C@@H]7C[C@H]6CN7)nc(NCCO)nc45)cc3)nn2)cc1` [Example 66], the IC50 in assay [1] (setting [3]) was determined as 360 nM; in assay [2] (setting [4]), 114 nM.

For `Cc1ncsc1-c1ccc([C@H](CO)NC(=O)[C@@H]2C[C@@H](O)CN2C(=O)[C@H](C(C)C)n2cc(-c3ccc(COc4c(-c5c(C)c(F)cc6[nH]ncc56)c(C5CC5)cc5c(N6C[C@@H]7C[C@H]6CN7)nc(OC6CCOCC6)nc45)cc3F)nn2)cc1` [Example 49, (4R)-1-[(2S)-2-(4-{4-[({6-cyclopropyl-4-[(1S,4S)-2,5-diazabicyclo[2.2.1]heptan-2-yl]-7-(6-fluoro-5-methyl-1H-indazol-4-yl)-2-[(oxan-4-yl)oxy]quinazolin-8-yl}oxy)methyl]-2-fluorophenyl}-1H-1,2,3-triazol-1-yl)-3-methylbutanoyl]-4-hydroxy-N-{(1R)-2-hydroxy-1-[4-(4-methyl-1,3-thiazol-5-yl)phenyl]ethyl}-L-prolinamide], the IC50 turned out to be 46 nM in assay [1] (Homo sapiens, ASPC1, 144 h) and 21 nM in assay [2] (Homo sapiens, ASPC1, 24 h).

Take `CO[C@@H](C)COc1nc(N2C[C@@H]3C[C@H]2CN3)c2cc(C3CC3)c(-c3c(C)c(F)cc4[nH]ncc34)c(OCc3ccc(-c4cn([C@H](C(=O)N5C[C@H](O)C[C@H]5C(=O)N[C@@H](CO)c5ccc(-c6ocnc6C)cc5)C(C)C)nn4)cc3)c2n1` [Example 72]: the IC50 in assay [1] (setting [3]) was 26 nM; in assay [2] (setting [4]), 16 nM.

With `Cc1ncsc1-c1ccc([C@H](CO)NC(=O)[C@@H]2C[C@@H](O)CN2C(=O)[C@H](C(C)C)n2cc(-c3ccc(COc4c(-c5c(C)c(F)cc6[nH]ncc56)c(C5CC5)cc5c(N6C[C@@H]7C[C@H]6CN7)nc(OC6CCN(CC(F)F)CC6)nc45)cc3)nn2)cc1` [Example 21], the IC50 in assay [1] (setting [3]) is 47 nM; in assay [2] (setting [4]) it was 19 nM.

In the case of `Cc1ncsc1-c1ccc([C@H](CO)NC(=O)[C@@H]2C[C@@H](O)CN2C(=O)C(C(C)C)n2cc(-c3ccc(COc4c(-c5c(C)c(F)cc6[nH]ncc56)c(C5CC5)cc5c(N6C[C@@H]7C[C@H]6CN7)nc(OC6CCOCC6)nc45)cc3)cn2)cc1` (single isomer, unassigned) [Example 11], the IC50 in assay [1] (Homo sapiens, ASPC1, 144 h) turned out to be 128 nM; in assay [2] (Homo sapiens, ASPC1, 24 h), 39 nM.

For the compound `Cc1ncsc1-c1ccc([C@H](CO)NC(=O)[C@@H]2C[C@@H](O)CN2C(=O)[C@H](C(C)C)n2cc(-c3ccc(COc4c(-c5c(C)c(F)cc6[nH]ncc56)c(C5CC5)cc5c(N6C[C@@H]7C[C@H]6CN7)nc(O[C@@H](C)[C@H](C)O)nc45)cc3)nn2)cc1` [Example 42], the IC50 in assay [1] (Homo sapiens, ASPC1, 144 h) is 46 nM; in assay [2] (Homo sapiens, ASPC1, 24 h), 22 nM.

For the compound `Cc1ncsc1-c1ccc([C@H](CO)NC(=O)[C@@H]2C[C@@H](O)CN2C(=O)[C@H](C(C)C)n2cc(-c3ccc(COc4c(-c5c(C)c(F)cc6[nH]ncc56)c(C5CC5)cc5c(N6C[C@@H]7C[C@H]6CN7)nc(OCC6(CO)CCOCC6)nc45)cc3)nn2)cc1` (atropisomer, axis not shown) [Example 36], the IC50 worked out at 24 nM in assay [1] (Homo sapiens, ASPC1, 144 h) and 31 nM in assay [2] (Homo sapiens, ASPC1, 24 h).

Regarding `COC[C@@H](C)Oc1nc(N2C[C@@H]3C[C@H]2CN3)c2cc(C3CC3)c(-c3c(C)c(F)cc4[nH]ncc34)c(OCc3ccc(-c4cn([C@H](C(=O)N5C[C@H](O)C[C@H]5C(=O)N[C@@H](CO)c5ccc(-c6scnc6C)cc5)C(C)C)nn4)cc3)c2n1` [Example 40], the IC50 was found to be 20 nM in assay [1] (Homo sapiens, ASPC1, 144 h) and 7 nM in assay [2] (Homo sapiens, ASPC1, 24 h).

For `Cc1ncoc1-c1ccc([C@H](CO)NC(=O)[C@@H]2C[C@@H](O)CN2C(=O)[C@H](C(C)C)n2cc(-c3ccc(COc4c(-c5c(C)c(F)cc6[nH]ncc56)c(C5CC5)cc5c(N6C[C@@H]7C[C@H]6CN7)nc(OC6CCOCC6)nc45)cc3)nn2)cc1` [Example 38], the IC50 was found to be 27 nM in assay [1] (Homo sapiens, ASPC1, 144 h) and 28 nM in assay [2] (Homo sapiens, ASPC1, 24 h).

With `Cc1ncsc1-c1ccc(C2(NC(=O)[C@@H]3C[C@@H](O)CN3C(=O)[C@@H](NC(=O)c3ccc(COc4c(-c5c(C)c(F)cc6[nH]ncc56)c(C5CC5)cc5c(N6C[C@@H]7C[C@H]6CN7)nc(OC6CCOCC6)nc45)cn3)C(C)C)CC2)cc1` [Example 2], the IC50 in assay [1] (Homo sapiens, ASPC1, 144 h) worked out at 1410 nM; in assay [2] (Homo sapiens, ASPC1, 24 h), 779 nM.

For the compound `Cc1ncsc1-c1ccc([C@H](CO)NC(=O)[C@@H]2C[C@@H](O)CN2C(=O)[C@H](C(C)C)n2cc(-c3ccc(COc4c(-c5c(C)c(F)cc6[nH]ncc56)c(C5CC5)cc5c(N6C[C@@H]7C[C@H]6CN7)nc(O[C@H](C)CN6CCOCC6)nc45)cc3)nn2)cc1` [Example 45], the 50% inhibitory concentration (IC50) in assay [1] (Homo sapiens, ASPC1, 144 h) amounted to 20 nM; in assay [2] (Homo sapiens, ASPC1, 24 h), 11 nM.

`CCn1nccc1-c1ccc([C@H](CO)NC(=O)[C@@H]2C[C@@H](O)CN2C(=O)[C@H](C(C)C)n2cc(-c3ccc(COc4c(-c5c(C)c(F)cc6[nH]ncc56)c(C5CC5)cc5c(N6C[C@@H]7C[C@H]6CN7)nc(OC6CCOCC6)nc45)cc3)nn2)cc1` [Example 26]: the IC50 in assay [1] (Homo sapiens, ASPC1, 144 h) was determined as 20 nM; in assay [2] (Homo sapiens, ASPC1, 24 h), 8 nM.

`CCn1nccc1-c1ccc([C@H](CO)NC(=O)[C@@H]2C[C@@H](O)CN2C(=O)[C@H](C(C)C)n2cc(-c3ccc(COc4c(-c5c(C)c(F)cc6[nH]ncc56)c(C5CC5)cc5c(N6C[C@@H]7C[C@H]6CN7)nc(OC[C@H](C)OC)nc45)cc3)nn2)cc1` [Example 70]: the IC50 was found to be 21 nM in assay [1] (setting [3]) and 12 nM in assay [2] (setting [4]).

For the compound `Cc1ncsc1-c1ccc([C@H](CF)NC(=O)[C@@H]2C[C@@H](O)CN2C(=O)[C@H](C(C)C)n2cc(-c3ccc(COc4c(-c5c(C)c(F)cc6[nH]ncc56)c(C5CC5)cc5c(N6C[C@@H]7C[C@H]6CN7)nc(OC6CCOCC6)nc45)cc3)nn2)cc1` [Example 17], the IC50 was determined as 104 nM in assay [1] (setting [3]) and 36 nM in assay [2] (setting [4]).

Regarding `Cc1c(F)cc2[nH]ncc2c1-c1c(C2CC2)cc2c(N3C[C@@H]4C[C@H]3CN4)nc(OC3CCOCC3)nc2c1OCc1ccc(-c2cn([C@H](C(=O)N3C[C@H](O)C[C@H]3C(=O)N[C@@H](CO)c3ccc(Br)cc3)C(C)C)nn2)cc1` [Example 12], the IC50 came out at 112 nM in assay [1] (Homo sapiens, ASPC1, 144 h) and 37 nM in assay [2] (Homo sapiens, ASPC1, 24 h).

As for `Cc1ncsc1-c1ccc([C@H](C)NC(=O)[C@@H]2C[C@@H](O)CN2C(=O)[C@H](C(C)C)n2cc(-c3ccc(COc4c(-c5c(C)c(F)cc6[nH]ncc56)c(C5CC5)cc5c(N6C[C@@H]7C[C@H]6CN7)nc(OC6CCOCC6)nc45)cc3)nn2)cc1` [Example 9], the IC50 is 96 nM in assay [1] (Homo sapiens, ASPC1, 144 h) and 18 nM in assay [2] (Homo sapiens, ASPC1, 24 h).

`Cc1ncsc1-c1ccc([C@H](CO)NC(=O)[C@@H]2C[C@@H](O)CN2C(=O)[C@H](C(C)C)n2cc(-c3ccc(COc4c(-c5c(C)c(F)cc6[nH]ncc56)c(C5CC5)cc5c(N6C[C@@H]7C[C@H]6CN7)nc(OC[C@@H]6CCOC6)nc45)cc3)nn2)cc1` [Example 53]: the IC50 is 23 nM in assay [1] and 10 nM in assay [2] (24 hours).

As to `Cc1c(F)cc2[nH]ncc2c1-c1c(C2CC2)cc2c(N3C[C@@H]4C[C@H]3CN4)nc(OC3CCOCC3)nc2c1OCc1ccc(-c2cn([C@H](C(=O)N3C[C@H](O)C[C@H]3C(=O)N[C@@H](CO)c3ccccc3)C(C)C)nn2)cc1` (atropisomer, axis not shown) [Example 14], the IC50 was 153 nM in assay [1] (Homo sapiens, ASPC1, 144 h) and 63 nM in assay [2] (Homo sapiens, ASPC1, 24 h).

Consider `CO[C@@H](C)COc1nc(N2C[C@@H]3C[C@H]2CN3)c2cc(C3CC3)c(-c3c(C)c(F)cc4[nH]ncc34)c(OCc3ccc(-c4cn([C@H](C(=O)N5C[C@H](O)C[C@H]5C(=O)N[C@@H](CO)c5ccc(F)cc5)C(C)C)nn4)cc3)c2n1` [Example 58], for which the IC50 in assay [1] (Homo sapiens, ASPC1, 144 h) was found to be 80 nM; in assay [2] (Homo sapiens, ASPC1, 24 h), 25 nM.

For the compound `CO[C@@H](C)[C@H](C)Oc1nc(N2C[C@@H]3C[C@H]2CN3)c2cc(C3CC3)c(-c3c(C)c(F)cc4[nH]ncc34)c(OCc3ccc(-c4cn([C@H](C(=O)N5C[C@H](O)C[C@H]5C(=O)N[C@@H](CO)c5ccc(-c6scnc6C)cc5)C(C)C)nn4)cc3)c2n1` [Example 41], the IC50 in assay [1] (Homo sapiens, ASPC1, 144 h) was determined as 31 nM; in assay [2] (Homo sapiens, ASPC1, 24 h) it was 17 nM.

As for `Cc1ncsc1-c1ccc([C@H](CO)NC(=O)[C@@H]2C[C@@H](O)CN2C(=O)[C@H](C(C)C)n2cc(-c3ccc(COc4c(-c5c(C)c(F)cc6[nH]ncc56)c(C5CC5)cc5c(N6C[C@@H]7C[C@H]6CN7)nc(O[C@H](C)[C@@H](C)O)nc45)cc3)nn2)cc1` (atropisomer, axis not shown) [Example 37], the IC50 turned out to be 19 nM in assay [1] (Homo sapiens, ASPC1, 144 h) and 18 nM in assay [2] (Homo sapiens, ASPC1, 24 h).

As to `Cc1ncsc1-c1ccc([C@@H](NC(=O)[C@@H]2C[C@@H](O)CN2C(=O)[C@H](C(C)C)n2cc(-c3ccc(COc4c(-c5c(C)c(F)cc6[nH]ncc56)c(C5CC5)cc5c(N6C[C@@H]7C[C@H]6CN7)nc(OC6CCOCC6)nc45)cc3)nn2)C(F)F)cc1` [Example 16], the figures for the half-inhibitory concentration (IC50) in assay [1] (setting [3]) and in assay [2] (setting [4]) were 185 nM and 67 nM, respectively.

In the case of `Cc1ncsc1-c1ccc([C@H](CO)NC(=O)[C@@H]2C[C@@H](O)CN2C(=O)[C@H](C(C)C)n2cc(-c3ccc(COc4c(-c5c(C)c(F)cc6[nH]ncc56)c(C5CC5)cc5c(N6C[C@@H]7C[C@H]6CN7)nc(OC[C@H](C)N6CCCC6)nc45)cc3)nn2)cc1` [Example 64], the IC50 in assay [1] (Homo sapiens, ASPC1, 144 h) was found to be 245 nM; in assay [2] (Homo sapiens, ASPC1, 24 h) it was 80 nM.
